Reference: article PMC7111787 (Virology, 2006)

Biological target: T1, MHV E protein (Murine hepatitis virus strain A59, UniProt P0C2R0)
T1 sequence (P0C2R0 1-83): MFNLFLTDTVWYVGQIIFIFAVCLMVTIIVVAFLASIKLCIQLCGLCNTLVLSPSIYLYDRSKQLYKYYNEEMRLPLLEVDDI
Assay: planar lipid bilayer current recording, dose titration
Assay type: biochemical

- EC50: 10.2 µM
Structure (SMILES): N=C(N)NC(=O)c1nc(Cl)c(N2CCCCCC2)nc1N [HMA, Hexamethylene amiloride]
